Laboratory results published in patent publication US8791132B2, “Compounds and methods for treatment of hypertension” (Medivation Technologies, Inc., priority 2011, dated 2014).
Like-named read-outs stand apart in the source and are kept apart here. Blank lines part the entries; values can stand above or below the molecule they belong to.

How the values were obtained:
[1] = target: T1, rat adrenergic α1B receptor (Rattus norvegicus, UniProt P15823); experiment: Radioligand binding, adrenergic α1B ([3H]Prazosin); settings: for Percentage inhibition of ligand binding, Adrenergic α1B (0.1 μM) / Percentage inhibition of ligand binding, Adrenergic α1B: 0.1 µM
T1 construct: rat adrenergic α1B receptor obtained from Wistar Rat liver; from tissue; host or cells: Wistar rat liver
T1 sequence (P15823 1-515): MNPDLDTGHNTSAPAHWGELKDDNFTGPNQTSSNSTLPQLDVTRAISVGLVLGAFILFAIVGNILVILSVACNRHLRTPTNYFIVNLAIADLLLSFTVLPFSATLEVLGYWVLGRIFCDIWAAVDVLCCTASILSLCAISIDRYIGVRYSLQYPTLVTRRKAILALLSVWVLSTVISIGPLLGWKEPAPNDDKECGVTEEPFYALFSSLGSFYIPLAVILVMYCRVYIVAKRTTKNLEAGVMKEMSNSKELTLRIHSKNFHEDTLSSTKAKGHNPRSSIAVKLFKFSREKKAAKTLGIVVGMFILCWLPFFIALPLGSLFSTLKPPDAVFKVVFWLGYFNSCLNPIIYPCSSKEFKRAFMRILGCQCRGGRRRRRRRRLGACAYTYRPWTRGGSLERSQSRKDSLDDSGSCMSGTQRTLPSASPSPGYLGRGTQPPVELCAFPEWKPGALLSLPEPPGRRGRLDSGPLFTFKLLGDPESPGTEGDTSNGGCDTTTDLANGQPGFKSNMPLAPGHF
Outline: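 Incubation ran 60 min at 25 °C in Tris-HCl buffer (50 mM, pH 7.4, 0.5 mM EDTA) with Wistar rat liver α1B receptor. 10 μM phentolamine set non-specific binding.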

[2] = target: T2, human recombinant adrenergic α2A receptor (Homo sapiens, UniProt P08913); experiment: Radioligand binding, adrenergic α2A ([3H]MK-912); settings: for Percentage inhibition of ligand binding, Adrenergic α2A / Percentage inhibition of ligand binding, Adrenergic α2A (0.1 μM): 0.1 µM
T2 construct: expressed in transfected cells; host or cells: insect Sf9 cells
T2 sequence (P08913 1-465): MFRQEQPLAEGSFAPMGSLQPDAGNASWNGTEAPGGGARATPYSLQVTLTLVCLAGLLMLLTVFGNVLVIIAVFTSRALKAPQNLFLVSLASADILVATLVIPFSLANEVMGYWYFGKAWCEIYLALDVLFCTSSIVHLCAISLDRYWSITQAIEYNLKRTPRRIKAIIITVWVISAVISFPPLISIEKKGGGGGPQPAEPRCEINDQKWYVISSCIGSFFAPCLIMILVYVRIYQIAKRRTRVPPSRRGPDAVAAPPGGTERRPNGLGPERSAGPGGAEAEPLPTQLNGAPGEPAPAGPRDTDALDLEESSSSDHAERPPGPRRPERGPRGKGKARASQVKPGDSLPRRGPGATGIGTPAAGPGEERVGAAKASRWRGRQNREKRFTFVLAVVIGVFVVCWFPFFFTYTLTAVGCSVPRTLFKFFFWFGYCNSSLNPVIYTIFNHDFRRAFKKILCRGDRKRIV
Outline: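 Receptor expressed in insect Sf9 cells, assayed in 50 mM Tris-HCl pH 7.4 with 12.5 mM MgCl2 and 2 mM EDTA. Compounds incubated with 1 nM [3H]MK-912 for 60 min at 25 °C; nonspecific binding defined with 10 μM WB-4101. Filter-bound radioactivity counted; values are percent inhibition of specific binding.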

[3] = target: T3, human recombinant adrenergic α2B receptor (Homo sapiens, UniProt P18089); experiment: Radioligand binding, adrenergic α2B ([3H]Rauwolscine); settings: for Percentage inhibition of ligand binding, Adrenergic α2B / Percentage inhibition of ligand binding, Adrenergic α2B (0.03 μM): 0.03 µM; for Ki: read-out: Ki α2B; for inhibition at 0.1 µM: read-out: Percentage inhibition of ligand binding, Adrenergic α2B (0.1 μM), compound at 0.1 μM
T3 construct: expressed in transfected cells; host or cells: CHO-K1
T3 sequence (P18089 1-450): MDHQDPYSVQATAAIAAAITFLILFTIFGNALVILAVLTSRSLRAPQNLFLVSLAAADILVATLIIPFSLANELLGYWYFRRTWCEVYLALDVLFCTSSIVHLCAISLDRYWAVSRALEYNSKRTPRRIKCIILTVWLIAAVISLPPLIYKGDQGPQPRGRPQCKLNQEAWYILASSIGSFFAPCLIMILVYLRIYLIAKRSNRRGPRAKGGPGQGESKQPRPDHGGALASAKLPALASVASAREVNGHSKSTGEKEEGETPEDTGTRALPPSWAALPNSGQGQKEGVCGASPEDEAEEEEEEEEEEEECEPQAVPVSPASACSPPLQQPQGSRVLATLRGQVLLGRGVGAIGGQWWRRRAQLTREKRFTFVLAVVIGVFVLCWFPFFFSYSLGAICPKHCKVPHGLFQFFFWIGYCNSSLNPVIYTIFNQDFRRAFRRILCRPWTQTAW
Outline: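 Membranes from CHO-K1 cells expressing human recombinant α2B, in 50 mM Tris-HCl pH 7.4, 12.5 mM MgCl2, 1 mM EDTA, 0.2% BSA, incubated with compound and 2.5 nM [3H]Rauwolscine, 60 min, 25 °C.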

[4] = compound at 0.1 μM, [3H]Prazosin, repeat assays, each datapoint shown, read-out: Percentage inhibition of ligand binding, Adrenergic α1B
[5] = compound at 0.1 μM, [3H]MK-912, repeat assays, each datapoint shown, read-out: Percentage inhibition of ligand binding, Adrenergic α2A
[6] = compound at 0.03 μM, [3H]Rauwolscine, repeat assays, each datapoint shown, read-out: Percentage inhibition of ligand binding, Adrenergic α2B
[7] = compound at 0.1 μM, [3H]MK-912, repeat assays, each datapoint shown
[8] = compound at 0.03 μM, [3H]Rauwolscine, repeat assays, each datapoint shown
[9] = compound at 0.1 μM, [3H]Prazosin, repeat datapoints each shown
[10] = compound at 0.1 μM, [3H]MK-912, repeat datapoints each shown
[11] = compound at 0.03 μM, [3H]Rauwolscine, repeat datapoints each shown
[12] = read-out: Percentage inhibition of ligand binding, Adrenergic α1B (0.1 μM), compound at 0.1 μM, [3H]Prazosin, repeat datapoints each shown
[13] = read-out: Percentage inhibition of ligand binding, Adrenergic α2A (0.1 μM), compound at 0.1 μM, [3H]MK-912, repeat datapoints each shown
[14] = read-out: Percentage inhibition of ligand binding, Adrenergic α2B (0.03 μM), compound at 0.03 μM, [3H]Rauwolscine, repeat datapoints each shown
[15] = [3H]Rauwolscine, repeat datapoints each shown
[16] = compound at 0.1 μM, [3H]Prazosin, repeat assays, each datapoint shown

Structure (SMILES): Cc1ccc2c(c1)c1c(n2CC(C)(O)c2cccnc2)CN(C)CC1 (stereo not drawn) [14b, 1-(2,6-dimethyl-1,2,3,4-tetrahydro-β-carbolin-9-yl)-2-pyridin-3-yl-propan-2-ol]
inhibition at 0.1 µM [1, 4]: 25% | inhibition at 0.1 µM [2, 5]: -6% | inhibition at 0.03 µM [3, 6]: 14%

Structure (SMILES): Cc1ccc2c(c1)c1c(n2CC(O)c2ccc(C(N)=O)cc2)CCN(C)C1 (single isomer, unassigned) [139a, 4-[2-(2,8-dimethyl-1,2,3,4-tetrahydro-pyrido[4,3-b]indol-5-yl)-1-hydroxy-ethyl]-benzamide]
inhibition at 0.1 µM [1, 12]: 17% | inhibition at 0.1 µM [2, 13]: 16% | Percentage inhibition of ligand binding, Adrenergic α2B (0.03 μM) [3, 11]: 101% | Ki [3]: 2.36 nM | inhibition at 0.03 µM [3, 14]: 88%

Structure (SMILES): Cc1ccc2c(c1)c1c(n2CC(N)c2ccc(F)cc2)CCN(C)C1 (stereo not drawn) [II-11, 2-(2,8-dimethyl-3,4-dihydro-1H-pyrido[4,3-b]indol-5(2H)-yl)-1-(4-fluorophenyl)ethanamine]
Percentage inhibition of ligand binding, Adrenergic α1B ([1]; 0.1 μM compound): 63% | Percentage inhibition of ligand binding, Adrenergic α2A ([2]; 0.1 μM compound): 25% | Percentage inhibition of ligand binding, Adrenergic α2B ([3]; 0.03 μM compound): 70%

Structure (SMILES): Cc1ccc2c(c1)c1c(n2CC(O)c2cnn(C)c2)CCN(C)C1 (single isomer, unassigned) [131b, 2-(1,2,3,4-tetrahydro-2,8-dimethylpyrido[4,3-b]indol-5-yl)-1-(1-methyl-1H-pyrazol-4-yl)ethanol]
inhibition at 0.1 µM [1, 12]: 36% | inhibition at 0.1 µM [2, 13]: 11% | Percentage inhibition of ligand binding, Adrenergic α2B (0.03 μM) [3, 11]: 63% | Ki [3]: 7.95 nM | inhibition at 0.03 µM [3, 14]: 53% | inhibition at 0.1 µM [3, 15]: 90%

Structure (SMILES): CN1CCc2c(n(CC(O)c3ccncc3)c3ccc(Cl)cc23)CC1 (single isomer, unassigned) [15b, 2-(9-chloro-3-methyl-2,3,4,5-tetrahydroazepino[4,5-b]indol-6(1H)-yl)-1-(pyridin-4-yl)ethanol]
inhibition at 0.03 µM ([1]; compound at 0.03 μM, [3H]Prazosin, repeat assays, each datapoint shown, read-out: Percentage inhibition of ligand binding, Adrenergic α1B): 73% | Percentage inhibition of ligand binding, Adrenergic α1B [1, 16]: 93% | inhibition at 0.1 µM [1, 4]: 89% | Ki [2]: 112 nM | Percentage inhibition of ligand binding, Adrenergic α2A [2, 7]: 24% | inhibition at 0.1 µM [2, 5]: 21% | inhibition at 0.03 µM [3, 6]: 103% | Ki [3]: 0.64 nM

Structure (SMILES): CC(C)(O)CCN1CCc2c(c3cc(Cl)ccc3n2CC(O)c2ccncc2)C1 (single isomer, unassigned) [11b, 4-[8-chloro-5-(2-hydroxy-2-pyridin-4-yl-ethyl)-1,3,4,5-tetrahydro-pyrido[4,3-b]indol-2-yl]-2-methyl-butan-2-ol]
Percentage inhibition of ligand binding, Adrenergic α1B [1, 16]: 18% | Percentage inhibition of ligand binding, Adrenergic α2A [2, 7]: 13% | Percentage inhibition of ligand binding, Adrenergic α2B [3, 8]: 64%

Structure (SMILES): Cc1ccc2c(c1)c1c(n2CC(O)c2ccccn2)CN(C)CC1 (single isomer, unassigned) [22b]
Percentage inhibition of ligand binding, Adrenergic α1B [1, 16]: 9% | Percentage inhibition of ligand binding, Adrenergic α2A [2, 7]: 0% | Percentage inhibition of ligand binding, Adrenergic α2B [3, 8]: 30%

Structure (SMILES): Cc1ccc2c(c1)c1c(n2CC(O)c2ccncc2)CC2CCCN2C1 (single isomer, unassigned) [76d]
Percentage inhibition of ligand binding, Adrenergic α1B [1, 16]: 51% | Percentage inhibition of ligand binding, Adrenergic α2A [2, 7]: 40% | Percentage inhibition of ligand binding, Adrenergic α2B [3, 8]: 91%

Continued, values first:

inhibition at 0.1 µM [1, 4]: 83% | Percentage inhibition of ligand binding, Adrenergic α2A [2, 7]: 18% | Percentage inhibition of ligand binding, Adrenergic α2B [3, 8]: 92%
Structure (SMILES): Cc1ccc2c(c1)c1c(n2CC(O)c2ccncc2)CCN(C)CC1 (stereo not drawn) [compound 13, 2-(3,9-dimethyl-2,3,4,5-tetrahydroazepino[4,5-b]indol-6(1H)-yl)-1-(pyridin-4-yl)ethanol]

Percentage inhibition of ligand binding, Adrenergic α1B (0.1 μM) [1, 9]: 59% | Percentage inhibition of ligand binding, Adrenergic α2A (0.1 μM) [2, 10]: 27% | Percentage inhibition of ligand binding, Adrenergic α2B (0.03 μM) [3, 11]: 96%
Structure (SMILES): Cc1cnc2c(c1)c1c(n2CC(C)(O)c2ccc(F)cc2)CCN2CCCC12 (single isomer, unassigned) [II-149b, 2-(4-fluoro-phenyl)-1-(9-methyl-1,2,3,4,5,10c-hexahydro-3a,6,7-triazacyclopenta[c]fluoren-6-yl)-propan-2-ol]

Percentage inhibition of ligand binding, Adrenergic α1B (0.1 μM) [1, 9]: 33% | Percentage inhibition of ligand binding, Adrenergic α2A (0.1 μM) [2, 10]: 8% | Percentage inhibition of ligand binding, Adrenergic α2B (0.03 μM) [3, 11]: 40%
Structure (SMILES): Cc1ccc2c(c1)c1c(n2CC(O)c2cc[nH]c(=O)c2)CCN2CCCC12 (single isomer, unassigned) [II-132a, 4-(2-(2,3,5,6-tetrahydro-10-methyl-1H-indolizino[7,8-b]indol-7(11cH)-yl)-1-hydroxyethyl)pyridin-2(1H)-one]

inhibition at 0.1 µM [1, 12]: 59% | inhibition at 0.1 µM [2, 13]: 18% | inhibition at 0.1 µM [3, 15]: 68%
Structure (SMILES): Cc1ccc2c(c1)c1c(n2CCc2cncc(F)c2)CCN(C)C1 [compound 117, 5-[2-(5-fluoro-pyridin-3-yl)-ethyl]-2,8-dimethyl-2,3,4,5-tetrahydro-1H-pyrido[4,3-b]indole]

Percentage inhibition of ligand binding, Adrenergic α1B ([1]; 0.1 μM compound): 5% | Percentage inhibition of ligand binding, Adrenergic α2A ([2]; 0.1 μM compound): 16% | Percentage inhibition of ligand binding, Adrenergic α2B ([3]; 0.03 μM compound): 7%
Structure (SMILES): Cc1cnc2c(c1)c1c(n2CC(C)(O)c2cccnc2)CCN(C)C1 (single isomer, unassigned) [II-99b]

inhibition at 0.1 µM [1, 12]: 22% | inhibition at 0.1 µM [2, 13]: 40% | inhibition at 0.03 µM [3, 14]: 71%
Structure (SMILES): Cc1ccc2c(c1)c1c(n2CC(C)(N=[N+]=[N-])c2cccnc2)CCN(C)C1 (stereo not drawn) [V-3, 5-(2-azido-2-(pyridin-3-yl)propyl)-2,8-dimethyl-2,3,4,5-tetrahydro-1H-pyrido[4,3-b]indole]

inhibition at 0.1 µM [1, 12]: 21% | inhibition at 0.1 µM [2, 13]: 27% | inhibition at 0.03 µM [3, 14]: 93%
Structure (SMILES): Cc1ccc2c(c1)c1c(n2CC(C)(O)c2cnccc2Cl)CCN(C)C1 (stereo not drawn) [II-148]

Percentage inhibition of ligand binding, Adrenergic α1B (0.1 μM) [1, 9]: 70% | inhibition at 0.03 µM ([1]; read-out: Percentage inhibition of ligand binding, Adrenergic α1B (0.03 μM), compound at 0.03 μM, [3H]Prazosin, repeat datapoints each shown): 26% | inhibition at 0.1 µM [1, 12]: 60% | inhibition at 0.1 µM [2, 13]: 40% | Percentage inhibition of ligand binding, Adrenergic α2B (0.03 μM) [3, 11]: 105% | Ki [3]: 0.53 nM | inhibition at 0.03 µM [3, 14]: 103% | inhibition at 0.1 µM [3, 15]: 105%
Structure (SMILES): Cc1ccc2c(c1)c1c(n2CC(C)(O)c2cccnc2)CCN(C)CC1 (single isomer, unassigned) [II-135b, 1-(3,9-dimethyl-2,3,4,5-tetrahydroazepino[4,5-b]indol-6(1H)-yl)-2-(pyridin-3-yl)propan-2-ol]
